Legend:
Test in all cases: Test C pre/postemergence
Type in all cases: in vivo
[1] = test system: goosegrass (Eleusine indica); details: for Goosegrass plant response rating: scale 0 to 100 (0 no effect, 100 complete control)
Method in brief: (§1)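 Greenhouse pot test: seeds treated preemergence, or plants at 2–18 cm (1- to 4-leaf stage) treated postemergence, with compound in non-phytotoxic solvent plus surfactant. Visual rating versus untreated controls after 12–14 days, scale 0 (no effect) to 100 (complete control); dash means not tested.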

[2] = test system: giant foxtail (Setaria faberii); details: for Foxtail, Giant plant response rating: scale 0 to 100 (0 no effect, 100 complete control)
Method in brief: as §1

[3] = test system: crabgrass (Digitaria sanguinalis); details: for Crabgrass plant response rating: scale 0 to 100 (0 no effect, 100 complete control)
Method in brief: as §1

[4] = test system: morningglory (Ipomoea coccinea); details: for Morningglory plant response rating: scale 0 to 100 (0 no effect, 100 complete control)
Method in brief: as §1

[5] = test system: soybean (Glycine max); details: for Soybean plant response rating: scale 0 to 100 (0 no effect, 100 complete control)
Method in brief: as §1

[6] = test system: common (oilseed) sunflower (Helianthus annuus); details: Preemergence
Method in brief: as §1

[7] = test system: pigweed (Amaranthus retroflexus); details: for Pigweed plant response rating: scale 0 to 100 (0 no effect, 100 complete control)
Method in brief: as §1

[8] = test system: woolly cupgrass (Eriochloa villosa); details: for Cupgrass, Woolly plant response rating: scale 0 to 100 (0 no effect, 100 complete control)
Method in brief: as §1

[9] = test system: kochia (Kochia scoparia); details: for Kochia plant response rating: scale 0 to 100 (0 no effect, 100 complete control)
Method in brief: as §1

[10] = test system: Surinam grass (Brachiaria decumbens); details: for Surinam Grass plant response rating: scale 0 to 100 (0 no effect, 100 complete control)
Method in brief: as §1

[11] = test system: bermudagrass (Cynodon dactylon); details: for Bermudagrass plant response rating: scale 0 to 100 (0 no effect, 100 complete control)
Method in brief: as §1

[12] = test system: johnsongrass (Sorghum halepense)
Method in brief: as §1

[13] = Postemergence, 250 g ai/ha, scale 0 to 100
[14] = Postemergence, 500 g ai/ha, scale 0 to 100
[15] = Preemergence, 62 g ai/ha, scale 0 to 100, 0 no effect, 100 complete control
[16] = Preemergence, 125 g ai/ha, scale 0 to 100
[17] = Preemergence, 250 g ai/ha, scale 0 to 100
[18] = Preemergence, 500 g ai/ha, scale 0 to 100

CNN=Cc1nc(C2CC2)nc(N)c1Br [Compound 49]
50: Morningglory plant response rating ([4]; Postemergence, 62 g ai/ha)
75: Plant response rating, Crabgrass [3, 13] | Plant response rating, Sunflower ([6]; 125 g ai/ha, scale 0 to 100)
45: Kochia plant response rating ([9]; Postemergence, 125 g ai/ha) | Plant response rating, Surinam Grass [10, 14] | Plant response rating, Johnsongrass [12, 15]
95: Plant response rating, Crabgrass [3, 14] | Plant response rating, Crabgrass [3, 15] | Plant response rating, Crabgrass [3, 16] | Plant response rating, Crabgrass [3, 17] | Plant response rating, Morningglory [4, 16] | Soybean plant response rating ([5]; Postemergence, 62 g ai/ha) | Soybean plant response rating ([5]; Postemergence, 125 g ai/ha) | Plant response rating, Soybean [5, 13] | Plant response rating, Pigweed [7, 13] | Plant response rating, Pigweed [7, 14] | Plant response rating, Kochia [9, 13] | Plant response rating, Bermudagrass [11, 18]
35: Plant response rating, Johnsongrass [12, 13]
90: Plant response rating, Morningglory [4, 15] | Plant response rating, Soybean [5, 17] | Plant response rating, Soybean [5, 18] | Plant response rating, Pigweed [7, 16]
0: Goosegrass plant response rating ([1]; Postemergence, 62 g ai/ha) | Goosegrass plant response rating ([1]; Postemergence, 125 g ai/ha) | Plant response rating, Goosegrass [1, 15] | Plant response rating, Goosegrass [1, 16] | Plant response rating, Goosegrass [1, 17] | Foxtail, Giant plant response rating ([2]; Postemergence, 62 g ai/ha) | Foxtail, Giant plant response rating ([2]; Postemergence, 125 g ai/ha) | Plant response rating, Foxtail, Giant [2, 13] | Plant response rating, Foxtail, Giant [2, 14] | Plant response rating, Foxtail, Giant [2, 15] | Plant response rating, Foxtail, Giant [2, 16] | Plant response rating, Foxtail, Giant [2, 17] | Crabgrass plant response rating ([3]; Postemergence, 62 g ai/ha) | Plant response rating, Soybean [5, 15] | Cupgrass, Woolly plant response rating ([8]; Postemergence, 62 g ai/ha) | Plant response rating, Cupgrass, Woolly [8, 15] | Plant response rating, Cupgrass, Woolly [8, 16] | Surinam Grass plant response rating ([10]; Postemergence, 62 g ai/ha) | Surinam Grass plant response rating ([10]; Postemergence, 125 g ai/ha) | Plant response rating, Surinam Grass [10, 15] | Bermudagrass plant response rating ([11]; Postemergence, 62 g ai/ha) | Plant response rating, Bermudagrass [11, 15] | Plant response rating, Bermudagrass [11, 16]
25: Plant response rating, Goosegrass [1, 14] | Plant response rating, Cupgrass, Woolly [8, 18]
80: Plant response rating, Morningglory [4, 13] | Pigweed plant response rating ([7]; Postemergence, 125 g ai/ha) | Plant response rating, Johnsongrass [12, 17]
100: Plant response rating, Crabgrass [3, 18] | Plant response rating, Morningglory [4, 14] | Plant response rating, Morningglory [4, 17] | Plant response rating, Morningglory [4, 18] | Plant response rating, Soybean [5, 14] | Plant response rating, Sunflower ([6]; 250 g ai/ha, scale 0 to 100) | Plant response rating, Sunflower ([6]; 500 g ai/ha, scale 0 to 100) | Plant response rating, Pigweed [7, 17] | Plant response rating, Pigweed [7, 18] | Plant response rating, Kochia [9, 14] | Plant response rating, Kochia [9, 15] | Plant response rating, Kochia [9, 16] | Plant response rating, Kochia [9, 17] | Plant response rating, Kochia [9, 18]
65: Plant response rating, Foxtail, Giant [2, 18] | Crabgrass plant response rating ([3]; Postemergence, 125 g ai/ha) | Pigweed plant response rating ([7]; Postemergence, 62 g ai/ha) | Plant response rating, Cupgrass, Woolly [8, 14] | Plant response rating, Surinam Grass [10, 18] | Plant response rating, Bermudagrass [11, 14] | Plant response rating, Johnsongrass [12, 16]
40: Plant response rating, Surinam Grass [10, 13] | Plant response rating, Surinam Grass [10, 17]
70: Morningglory plant response rating ([4]; Postemergence, 125 g ai/ha) | Plant response rating, Soybean [5, 16] | Plant response rating, Johnsongrass [12, 14]
15: Plant response rating, Goosegrass [1, 18] | Plant response rating, Sunflower ([6]; 62 g ai/ha, scale 0 to 100, 0 no effect, 100 complete control) | Cupgrass, Woolly plant response rating ([8]; Postemergence, 125 g ai/ha) | Plant response rating, Surinam Grass [10, 16]
60: Plant response rating, Cupgrass, Woolly [8, 13]
55: Bermudagrass plant response rating ([11]; Postemergence, 125 g ai/ha) | Plant response rating, Bermudagrass [11, 13]
85: Plant response rating, Pigweed [7, 15] | Plant response rating, Bermudagrass [11, 17] | Plant response rating, Johnsongrass [12, 18]
20: Plant response rating, Goosegrass [1, 13] | Plant response rating, Cupgrass, Woolly [8, 17] | Kochia plant response rating ([9]; Postemergence, 62 g ai/ha) | Johnsongrass plant response rating ([12]; Postemergence, 125 g ai/ha, scale 0 to 100 (0 no effect, 100 complete control))

From patent US8802597B2, “Herbicidal pyrimidines” (E I du Pont de Nemours and Company, priority 2003, dated 2014)
